Reference: PMC11396751, “Design, Synthesis, and Anticancer Activity of Novel Enmein-Type Diterpenoid Derivatives Targeting the PI3K/Akt/mTOR Signaling Pathway” (Molecules, 2024)

Assays:
A549 cells [1] = assay: MTT anti-proliferative assay, A549; type: cell-based, human
Method: (§1) A series of novel enmein-type diterpenoid derivatives, 5a–m, were synthesized by introducing a side chain containing a carbamate moiety at the C-6 position of compound 4. The anticancer activities of 5a–m were tested against three human cancer cell lines and one human normal cell line by MTT assay.
(§2) Human non-small cell lung cancer cell lines (A549), human liver cancer cell lines (HepG2), human breast cancer cell lines (MCF-7), and human normal cell lines (L-02) were purchased from the cell bank of the Chinese Academy of Sciences. All cells were placed in RPMI-1640 medium (added 10% fetal bovine serum, […]) and cultured in an aseptic environment with 5% CO2 at 37 °C.
(§3) All derivatives were evaluated for their anti-proliferative activities against three cancer cell lines and one normal cell line by MTT assay. The cells in the logarithmic growth phase were inoculated into 96-well plates (3 × 10^3 cells/well) and incubated for 48 h in a sterile environment with 5% CO2 at 37 °C to make them attach via cell adhesion; then, the cells were co-incubated with target compounds for 48 h. After that, MTT solution (10 µL/well) was added to the cell culture medium to continue incubation for 4 h, following which the medium was replaced with DMSO (150 µL/well). The absorbance values at 490 nm were determined using an enzyme meter (Safire 2, Tecan, Männedorf, Switzerland) and further converted to half-inhibitory concentration values of these compounds.

HepG2 cells = assay: MTT anti-proliferative assay, HepG2; type: cell-based, human
Method: as §1, §2, §3

A549 cells [2] = assay: Apoptosis morphology, AO/EB double staining; type: cell-based, human; conditions: A549, 2, 4 and 8 µM, 48 h
Method: To explore whether compound 7h could induce apoptosis in cancer cells, A549 cells were treated with different concentrations (0, 2, 4, and 8 µM) of 7h and then stained with AO/EB double staining. In the blank control group, normal cells were stained green with AO staining solution with intact nuclei.
A549 cells were inoculated into 24-well plates and attached via cell adhesion. Then, gradient concentrations (0, 2, 4, and 8 µM) of 7h were added and co-incubated for 48 h. The cells were cleaned with ice-cold PBS, stained with AO/EB, mixed, and then incubated in cells for 5 min in darkness at 25 °C. The apoptosis morphology of the cells in each group was observed and photographed using a laser confocal microscope (LSM710, Zeiss, Oberkochen, Germany).

PI3K/Akt/mTOR pathway = assay: Western blot analysis in A549 cells; type: cell-based, human; conditions: A549, 2, 4 and 8 µM, 48 h
Method: The PI3K/Akt/mTOR pathway is a critical intracellular signaling pathway during cancer development that regulates cellular processes such as proliferation, differentiation, apoptosis, and autophagy. Inhibiting the aberrant activation of the PI3K/Akt/mTOR signaling pathway is envisaged as a promising anticancer strategy. Based on KEGG analysis and researching the literature, the PI3K/Akt/mTOR signaling pathway is predicted to be one of the major pathways for 7h to exert its anticancer effects. Therefore, a western blot assay was performed to determine the expression of the main proteins, PI3K, p-PI3K, Akt, p-Akt, mTOR, and p-mTOR, to examine whether the anticancer ability of 7h against A549 cells is related to its modulation of the PI3K/Akt/mTOR pathway.
Western blot was used to determine the effect of 7h against the related protein expression in A549 cells. A549 cells were inoculated in 6-well plates and treated with a grdient concentrations (0, 2, 4, and 8 µM) of 7h for 48 h. The cells were collected, lysed in RIPA buffer, and heated at 100 °C for 10 min. The samples were processed via 10% sodium dodecyl sulfate-polyacrylamide gel electrophoresis (10% SDS-PAGE) and then transferred to a poly vinylidene difluoride (PVDE) membrane. […]

MCF-7 cells = assay: MTT anti-proliferative assay, MCF-7; type: cell-based; conditions: Homo sapiens, MCF7, 48 h, means ± SD of three experiments
Method: as §1, §2, §3

A549 cells [3] = assay: ROS content, H2DCFDA staining; type: cell-based, human; conditions: A549, 2, 4 and 8 µM, 48 h, flow cytometry
Method: Reactive oxygen species (ROS) are secondary metabolites of cells and are closely linked to the regulation of multiple biological activities. Elevated intracellular ROS levels are thought to be a hallmark of apoptosis. To determine whether 7h could affect the ROS content in cancer cells, the A549 cells were treated with different concentrations (0, 2, 4, and 8 µM) of 7h and then stained with H2DCFDA.
Flow cytometry was used to detect changes in intracellular reactive oxygen species content, and the results are shown in Figure 5b,c.
A549 cells were inoculated into 24-well plates and attached via cell adhesion. Then, gradient concentrations (0, 2, 4, and 8 µM) of 7h were added and the cells were co-incubated for 48 h. The cells were cleaned with ice-cold PBS, stained with H2DCFDA, mixed, and incubated in cells for 20 min in darkness at 25 °C. The apoptosis morphology of the cells in each group was observed and photographed using a laser confocal microscope (LSM710, Zeiss, Oberkochen, Germany).
A549 cells were inoculated into 6-well plates and attached via cell adhesion. Then, gradient concentrations (0, 2, 4, and 8 µM) of 7h were added and the cells were co-incubated for 48 h. […] The experimental data were gathered using flow cytometry (FACS Calibur, BD, Milpitas, CA, USA) and analyzed using Flow Jo software. […]

Compound: C=C1C(=O)C23C(=O)OC45CCC(C)(C)C6C(OC(=O)CCC(=O)N7CCC(c8noc9cc(F)ccc89)CC7)OCC64C2CCC1C3O5 (single isomer, unassigned; ent-6) [Compound 7h, ent-6β,14α-Dihydroxy-(1,7–1,14)-epoxy-7,15-dioxo-6,20-hemiketal-6,7-seco-16-kaurene-6β-yl 4-(4-(6-fluorobenzo[d]isoxazol-3-yl)piperidin-1-yl)-4-oxobutanoate]
- fold better than parental compound 4 (A549 IC50) (A549 cells [1]; A549 cells): 11.03 fold
- IC50 (A549 cells [1]; Homo sapiens, A549, MTT, 48 h, means ± SD of three experiments): 2.16 ± 1.4 µM
- anticancer activity in words, HepG2 (HepG2 cells; HepG2 cells): low micro-molar-level anticancer activities
- IC50 (HepG2 cells; Homo sapiens, HepG2, MTT, 48 h, means ± SD of three experiments): 6.1 ± 1.24 µM
- apoptosis morphology (AO/EB) (A549 cells [2]): generated large amounts of apoptotic cells
- Akt protein phosphorylation expression (PI3K/Akt/mTOR pathway): showed an effect on Akt protein phosphorylation expression
- expression levels of p-PI3K and p-mTOR (PI3K/Akt/mTOR pathway; dose-dependent, vs blank control): effectively reduce
- IC50 (MCF-7 cells): 6.74 ± 1.94 µM
- intracellular ROS content (A549 cells [3]): increased significantly in a dose-dependent manner
